Source: patent publication US11702422B2, “Imidazopyridazines as modulators of IL-17” (Janssen Pharmaceutica NV, priority 2020, dated 2023)

How the values were obtained:
[1] = biological target: IL-17A(FLAG-Tagged): IL-17RA(His-Tagged) (Homo sapiens, UniProt Q16552, K93Q); test: IL-17A(FLAG-Tagged): IL-17RA(His-Tagged) Binding Disruption Eu-HTRF Assay; details: IL-17A/IL-17RA binding disruption, simple average if tested more than once
Outline: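 IC50 comes from a one-site competition fit of the HTRF 665/620 nm ratio. Compound dilutions (2-fold, 22 points) were held 1 h rt with FLAG-tagged IL-17A dimer, then His-tagged IL-17RA plus Eu-cryptate anti-FLAG and D2 anti-His antibodies were added for 2 h rt.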

[2] = test system: IL-17A-induced G-CSF production in human normal keratinocyte (NHK); test: NHK Assay: IL-17A-induced G-CSF production in human normal keratinocytes; assay type: cell-based; details: 24 h, adult normal human keratinocytes, IL-17A 5 ng/mL, simple average if tested more than once
Outline: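 HTRF read-out of supernatant G-CSF, quantified from a standard curve, gave IC50 values. Adult keratinocytes, 3000-4000 cells/well, received human IL-17A (5 ng/mL final) pre-mixed 1 h at rt with compound, in 5% FBS and 0.2% DMSO, 24 h at 37° C.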

Chain of UniProt Q16552 (Q16552 with tags, fused parts or gaps K93Q): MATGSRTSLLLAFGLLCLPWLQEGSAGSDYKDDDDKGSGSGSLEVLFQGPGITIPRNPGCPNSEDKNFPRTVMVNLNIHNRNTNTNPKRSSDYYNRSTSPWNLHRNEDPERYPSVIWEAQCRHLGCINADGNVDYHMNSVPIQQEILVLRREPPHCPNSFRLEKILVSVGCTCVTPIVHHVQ

| Structure (SMILES) | IC50 [1] [nM] | IC50 ([2]; Homo sapiens, Keratinocyte) [nM] | IC50 [2] [nM] |
| --- | --- | --- | --- |
| CC(C)n1cncc1C(=O)N[C@H](c1cn2ncc([C@H](NC(=O)CCC(F)(F)F)C3CC3)cc2n1)C1CCC(F)(F)CC1 [Example 85, N—((S)-(7-((R)-Cyclopropyl(4,4,4-trifluorobutanamido)methyl)imidazo[1,2-b]pyridazin-2-yl)(4,4-difluorocyclohexyl)methyl)-1-isopropyl-1H-imidazole-5-carboxamide] | 250 | 340 | – |
| CC(C)c1ocnc1C(=O)N[C@H](c1cn2ncc([C@H](NC(=O)CCC(F)(F)F)C3CC3)cc2n1)C1CCC(F)(F)CC1 [Example 86, N—((S)-(7-((R)-Cyclopropyl(4,4,4-trifluorobutanamido)methyl)imidazo[1,2-b]pyridazin-2-yl)(4,4-difluorocyclohexyl)methyl)-5-isopropyloxazole-4-carboxamide] | 210 | 350 | – |
| CC(C)c1snnc1C(=O)N[C@H](c1cn2ncc([C@H](NC(=O)CCC(F)(F)F)C3CC3)cc2n1)C1CCC(F)(F)CC1 [Example 87, N—((S)-(7-((R)-Cyclopropyl(4,4,4-trifluorobutanamido)methyl)imidazo[1,2-b]pyridazin-2-yl)(4,4-difluorocyclohexyl)methyl)-5-isopropyl-1,2,3-thiadiazole-4-carboxamide] | 33 | 95 | – |
| CCc1oncc1C(=O)N[C@H](c1cn2ncc([C@H](NC(=O)CCC(F)(F)F)C3CC3)cc2n1)C1CCC(F)(F)CC1 [Example 88, N—((S)-(7-((R)-Cyclopropyl(4,4,4-trifluorobutanamido)methyl)imidazo[1,2-b]pyridazin-2-yl)(4,4-difluorocyclohexyl)methyl)-5-ethylisoxazole-4-carboxamide] | 56 | 110 | – |
| CC(C)c1oncc1C(=O)N[C@H](c1cn2ncc([C@H](NC(=O)CCC(F)(F)F)C3CC3)cc2n1)C1CCC(F)(F)CC1 [Example 89, N—((S)-(7-((R)-Cyclopropyl(4,4,4-trifluorobutanamido)methyl)imidazo[1,2-b]pyridazin-2-yl)(4,4-difluorocyclohexyl)methyl)-5-isopropylisoxazole-4-carboxamide] | 43 | – | 65 |
| O=C(CCC(F)(F)F)N[C@@H](c1cnn2cc([C@@H](NC(=O)[C@@H]3C[C@H]3F)C3CCC(F)(F)CC3)nc2c1)C1CC1 [Example 90, (1S,2R)—N—((S)-(7-((R)-Cyclopropyl(4,4,4-trifluorobutanamido)methyl)imidazo[1,2-b]pyridazin-2-yl)(4,4-difluorocyclohexyl)methyl)-2-fluorocyclopropane-1-carboxamide] | 1500 | ~20000 | – |
| O=C(CCC(F)(F)F)N[C@@H](c1cnn2cc([C@@H](NC(=O)c3cnnn3CC3CCC3(F)F)C3CCC(F)(F)CC3)nc2c1)C1CC1 (stereo partly drawn) [Example 91, N—((S)-(7-((R)-Cyclopropyl(4,4,4-trifluorobutanamido)methyl)imidazo[1,2-b]pyridazin-2-yl)(4,4-difluorocyclohexyl)methyl)-1-((2,2-difluorocyclobutyl)methyl)-1H-1,2,3-triazole-5-carboxamide] | 92 | 120 | – |
| O=C(CCC(F)(F)F)N[C@@H](c1cnn2cc([C@@H](NC(=O)c3cnnn3CC3CC3(F)F)C3CCC(F)(F)CC3)nc2c1)C1CC1 (stereo partly drawn) [Example 92, N—((S)-(7-((R)-Cyclopropyl(4,4,4-trifluorobutanamido)methyl)imidazo[1,2-b]pyridazin-2-yl)(4,4-difluorocyclohexyl)methyl)-1-((2,2-difluorocyclopropyl)methyl)-1H-1,2,3-triazole-5-carboxamide] | 110 | 140 | – |
| O=C(CCC(F)(F)F)N[C@@H](c1cnn2cc([C@@H](NC(=O)c3cnn(CC4CC4(F)F)n3)C3CCC(F)(F)CC3)nc2c1)C1CC1 (stereo partly drawn) [Example 93, N—((S)-(7-((R)-Cyclopropyl(4,4,4-trifluorobutanamido)methyl)imidazo[1,2-b]pyridazin-2-yl)(4,4-difluorocyclohexyl)methyl)-2-((2,2-difluorocyclopropyl)methyl)-2H-1,2,3-triazole-4-carboxamide] | 150 | 280 | – |
| O=C(CCC(F)(F)F)N[C@@H](c1cnn2cc([C@@H](NC(=O)c3cnnn3CC3CC(F)(F)C3(F)F)C3CCC(F)(F)CC3)nc2c1)C1CC1 (stereo partly drawn) [Example 94, N—((S)-(7-((R)-Cyclopropyl(4,4,4-trifluorobutanamido)methyl)imidazo[1,2-b]pyridazin-2-yl)(4,4-difluorocyclohexyl)methyl)-1-((2,2,3,3-tetrafluorocyclobutyl)methyl)-1H-1,2,3-triazole-5-carboxamide] | 110 | 150 | – |
| O=C(CCC(F)(F)F)N[C@@H](c1cnn2cc([C@@H](NC(=O)c3cnn(CC4CC(F)(F)C4(F)F)n3)C3CCC(F)(F)CC3)nc2c1)C1CC1 (stereo partly drawn) [Example 95, N—((S)-(7-((R)-Cyclopropyl(4,4,4-trifluorobutanamido)methyl)imidazo[1,2-b]pyridazin-2-yl)(4,4-difluorocyclohexyl)methyl)-2-((2,2,3,3-tetrafluorocyclobutyl)methyl)-2H-1,2,3-triazole-4-carboxamide] | 100 | 260 | – |
| O=C(CCC(F)(F)F)N[C@@H](c1cnn2cc([C@@H](NC(=O)c3cn(CC4CC(F)(F)C4(F)F)nn3)C3CCC(F)(F)CC3)nc2c1)C1CC1 (stereo partly drawn) [Example 96, N—((S)-(7-((R)-Cyclopropyl(4,4,4-trifluorobutanamido)methyl)imidazo[1,2-b]pyridazin-2-yl)(4,4-difluorocyclohexyl)methyl)-1-((2,2,3,3-tetrafluorocyclobutyl)methyl)-1H-1,2,3-triazole-4-carboxamide] | 370 | 2200 | – |
| O=C(CCC(F)(F)F)N[C@@H](c1cnn2cc([C@@H](NC(=O)[C@H]3C[C@H]3F)C3CCC(F)(F)CC3)nc2c1)C1CC1 [Example 97, (1R,2R)—N—((S)-(7-((R)-Cyclopropyl(4,4,4-trifluorobutanamido)methyl)imidazo[1,2-b]pyridazin-2-yl)(4,4-difluorocyclohexyl)methyl)-2-fluorocyclopropane-1-carboxamide] | 5400 | > 20000 | – |
| O=C(CCC(F)(F)F)N[C@@H](c1cnn2cc([C@@H](NC(=O)[C@H]3C[C@@H]3F)C3CCC(F)(F)CC3)nc2c1)C1CC1 [Example 98, (1R,2S)—N—((S)-(7-((R)-Cyclopropyl(4,4,4-trifluorobutanamido)methyl)imidazo[1,2-b]pyridazin-2-yl)(4,4-difluorocyclohexyl)methyl)-2-fluorocyclopropane-1-carboxamide] | 770 | 2300 | – |
| O=C(CCC(F)(F)F)N[C@@H](c1cnn2cc([C@@H](NC(=O)c3conc3CCF)C3CCC(F)(F)CC3)nc2c1)C1CC1 [Example 99, N—[(S)-[7-[(R)-Cyclopropyl-(4,4,4-trifluorobutanoylamino)methyl]imidazo[1,2-b]pyridazin-2-yl]-(4,4-difluorocyclohexyl)methyl]-3-(2-fluoroethyl)isoxazole-4-carboxamide] | 57 | 60 | – |
| CC1(c2nocc2C(=O)N[C@H](c2cn3ncc([C@H](NC(=O)CCC(F)(F)F)C4CC4)cc3n2)C2CCC(F)(F)CC2)COC1 [Example 100, N—[(S)-[7-[(R)-Cyclopropyl-(4,4,4-trifluorobutanoylamino)methyl]imidazo[1,2-b]pyridazin-2-yl]-(4,4-difluorocyclohexyl)methyl]-3-(3-methyloxetan-3-yl)isoxazole-4-carboxamide] | 160 | 85 | – |
